Experimental data as given in patent publication US8568987B2, “Chemotaxis diagnostic” (Glycotope Biotechnology GmbH, priority 2000, dated 2013).

Assays:
[1] = tested on: neutrophilic granulocytes; assay: Granulocyte chemotaxis test: number of cells migrated through porous membrane, counted against beads by flow-through cytometry; format: cell-based, human; conditions: 5×10^−8 M fMLP vs negative control containing PBS; FIG. 3B
Description: (§1) 1 ml of Ficoll (Ficoll separation medium, from Seromed, order No. L6113 (endotoxin-low)) is initially introduced in an Eppendorf tube and 1 ml of fresh (preferably not older than 8 hours) heparinized whole blood (endotoxin-low heparin) is carefully overlaid at room temperature. The mixture is allowed to stand at room temperature until a marked phase separation can be observed. After a spontaneous sedimentation, normally lasting for about 40 minutes at room temperature, the leukocytes and platelets remain above the Ficoll phase while the erythrocytes have sedimented to the bottom. The sinking of the erythrocytes occurs quite suddenly after from approx. 30 to 40 minutes. […]
(§2) 20 μl of LDS (laser dye LDS 751, from Exiton or Styryl 8, from Lambda Physik, Göttingen; for excluding the erythrocytes, 1 mg/ml, prediluted 1:50 in PBS) are added to the solution. […] The measurement is stopped after in each case 1000 or 2000 latex particles have been recorded, such that approx. 5000-15 000 neutrophils have been counted. […] The sheath fluid employed is FACS Flow (from Becton Dickinson, order No. 342003) or another carrier fluid having a low intrinsic fluorescence. […] The calibration and quality control for fluorescence measurements (intensity per cell) are carried out using the Calibrites. […]

[2] = tested on: neutrophilic granulocytes (LECAM-1 surface expression); assay: Granulocyte chemotaxis test from leukocyte-rich plasma: LECAM-1 surface expression by flow-through cytometry; format: cell-based, human; conditions: 5×10^−8 M fMLP vs negative control containing PBS; FIG. 3A/3B
Description: as §1, §2

Substance: N-formyl-Met-Leu-Phe [fMLP]
- number of neutrophilic granulocyte cells which have migrated through the membrane, in relation to constant number of beads [1]: marked increase
- decrease in the surface expression of the cell adhesion molecule LECAM-1 [2]: about one order of magnitude
